Source: ChEMBL document CHEMBL3621074, “Exploration of the linkage elements of porcupine antagonists led to potent Wnt signaling pathway inhibitors” (Bioorg Med Chem, 2015)
The source made the active and inactive calls. The rule behind the calls is not given here.

Assays:
[1] = molecular target: T1, Protein-serine O-palmitoleoyltransferase porcupine (Homo sapiens, UniProt Q9H237); test: Inhibition of porcupine (unknown origin) expressed in mouse L Wnt3A cells co-cultured with TM3 cells harboring luciferase reporter gene assessed as reduction in Wnt ligand-driven LEF/TCF-dependent transcriptional activity; format: cell-based
T1 sequence (Q9H237 whole entry): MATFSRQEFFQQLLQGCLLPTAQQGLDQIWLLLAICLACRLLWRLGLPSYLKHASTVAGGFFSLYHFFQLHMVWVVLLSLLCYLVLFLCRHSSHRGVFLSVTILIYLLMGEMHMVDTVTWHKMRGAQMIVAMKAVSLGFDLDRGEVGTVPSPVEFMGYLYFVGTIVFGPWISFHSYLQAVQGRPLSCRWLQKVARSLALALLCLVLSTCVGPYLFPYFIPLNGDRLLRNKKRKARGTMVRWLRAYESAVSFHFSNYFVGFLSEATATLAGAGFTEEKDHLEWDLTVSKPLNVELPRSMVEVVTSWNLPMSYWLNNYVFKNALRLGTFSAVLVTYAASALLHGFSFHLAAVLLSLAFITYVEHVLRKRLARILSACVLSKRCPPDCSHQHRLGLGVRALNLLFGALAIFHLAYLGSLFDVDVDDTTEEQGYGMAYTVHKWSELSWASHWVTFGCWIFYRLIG

[2] = Stability of the compound in rat plasma assessed as drug remaining at 1 uM incubated for 30 mins by LC-MS/MS method; format: ADME, cell-free; conditions: read-out: Stability
[3] = Effect on total intracellular Wnt3a levels in HEK293T cells transfected with pLinbin- Wnt3A plasmid at 0.1 uM incubated for 48 hrs by Western blotting method; format: ADME, cell-based; conditions: human, hek-293t
[4] = Stability of the compound in rat plasma assessed as drug remaining at 1 uM incubated for 1 hr by LC-MS/MS method; format: ADME, cell-free; conditions: read-out: Stability
[5] = Intrinsic clearance in human liver microsomes at 1 uM incubated for 60 mins in presence of NADPH by LC-MS/MS method; format: ADME; conditions: read-out: CLH
CYP3A4 = CYP3A4 (Homo sapiens, UniProt P08684); test: Inhibition of CYP3A4 in human liver microsomes at 10 uM pre-incubated for 10 mins before midazolam substrate and NADPH addition by LC-MS/MS method; format: ADME; conditions: probe midazolam
Sequence of CYP3A4 (P08684 whole entry): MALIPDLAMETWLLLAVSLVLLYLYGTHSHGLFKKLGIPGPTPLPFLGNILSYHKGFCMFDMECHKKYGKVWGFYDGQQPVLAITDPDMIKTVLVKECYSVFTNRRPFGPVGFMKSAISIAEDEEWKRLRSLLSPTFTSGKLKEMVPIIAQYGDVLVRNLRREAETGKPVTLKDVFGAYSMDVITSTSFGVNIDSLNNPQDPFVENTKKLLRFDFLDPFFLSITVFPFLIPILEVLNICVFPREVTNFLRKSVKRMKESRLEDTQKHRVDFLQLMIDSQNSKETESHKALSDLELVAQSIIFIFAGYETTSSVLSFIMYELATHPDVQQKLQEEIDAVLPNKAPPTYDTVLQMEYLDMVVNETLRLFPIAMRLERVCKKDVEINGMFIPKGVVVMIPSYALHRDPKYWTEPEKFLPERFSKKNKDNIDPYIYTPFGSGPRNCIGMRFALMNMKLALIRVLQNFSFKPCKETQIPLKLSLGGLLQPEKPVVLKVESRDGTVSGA

[6] = molecular target: T2, Protein-serine O-palmitoleoyltransferase porcupine (Homo sapiens) (UniProt Q9H237); test: Inhibition of porcupine (unknown origin) expressed in HEK293T cells transfected with pLinbin- Wnt3A plasmid assessed as inhibition of Wnt3A secretion at 0.1 uM incubated for 48 hrs by Western blotting method; format: cell-based; conditions: HEK-293T
T2 sequence (whole entry): T1 sequence (Q9H237 whole entry)

[7] = Chemical stability in simulated gastric fluid assessed as remaining compound level incubated for 4 hrs at 200 uM at 40 degC by HPLC method; format: physicochemical; conditions: read-out: Stability
[8] = Half life in human liver microsomes at 1 uM in presence of NADPH by LC-MS/MS method; format: ADME
[9] = Stability of the compound in rat plasma assessed as drug remaining at 1 uM incubated for 8 hr by LC-MS/MS method; format: ADME, cell-free; conditions: read-out: Stability
CYP2D6 = CYP2D6 (Homo sapiens, UniProt P10635); test: Inhibition of CYP2D6 in human liver microsomes at 10 uM pre-incubated for 10 mins before dextromethorphan substrate and NADPH addition by LC-MS/MS method; format: ADME; conditions: probe dextromethorphan
Sequence of CYP2D6 (P10635 whole entry): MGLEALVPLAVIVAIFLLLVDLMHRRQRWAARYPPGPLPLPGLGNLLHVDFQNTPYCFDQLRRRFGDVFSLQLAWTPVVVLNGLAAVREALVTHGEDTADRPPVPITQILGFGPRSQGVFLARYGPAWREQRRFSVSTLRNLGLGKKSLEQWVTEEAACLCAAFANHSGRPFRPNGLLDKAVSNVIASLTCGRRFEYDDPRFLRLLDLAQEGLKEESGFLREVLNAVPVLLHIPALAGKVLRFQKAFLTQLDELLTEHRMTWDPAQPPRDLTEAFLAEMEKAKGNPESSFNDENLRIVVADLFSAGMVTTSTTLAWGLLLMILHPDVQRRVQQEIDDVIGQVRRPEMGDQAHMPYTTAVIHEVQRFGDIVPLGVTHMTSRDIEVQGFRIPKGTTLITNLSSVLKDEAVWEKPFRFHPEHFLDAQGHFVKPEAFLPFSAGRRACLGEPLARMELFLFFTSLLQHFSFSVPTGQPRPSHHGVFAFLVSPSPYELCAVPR

[10] = Half life in mouse liver microsomes at 1 uM in presence of NADPH by LC-MS/MS method; format: ADME
[11] = Chemical stability in simulated gastric fluid assessed as remaining compound level incubated for 8 hrs at 200 uM at 40 degC by HPLC method; format: physicochemical; conditions: read-out: Stability
[12] = Chemical stability in simulated gastric fluid assessed as remaining compound level incubated for 0 hrs at 200 uM at 40 degC by HPLC method; format: physicochemical; conditions: read-out: Stability
[13] = Intrinsic clearance in mouse liver microsomes at 1 uM incubated for 60 mins in presence of NADPH by LC-MS/MS method; format: ADME; conditions: read-out: CLH
[14] = molecular target: T2, Protein-serine O-palmitoleoyltransferase porcupine (Homo sapiens); test: Potency index, ratio of IC50 for LGK974 to IC50 for test compound for inhibition of porcupine (unknown origin) expressed in mouse L Wnt3A cells co-cultured with HEK293 STF cells by STF reporter gene based paracrine cellular reporter gene assay; format: cell-based

Which IC50 [1] does the source give for `Cc1cc(-c2ccc(N(C)CC(=O)Nc3ccc(-c4cnccn4)cn3)cc2)ccn1` here?
The IC50 was 0.67 nM.

What does the source list for `Cc1cc(-c2ccc(OCC(=O)Nc3ccc(-c4cnccn4)cn3)cc2)ccn1`?
IC50 [1]: 0.23 nM; remaining at 0.5 h, 1 µM [2]: 97%; Activity [3]: Non-toxic; remaining at 1 h, 1 µM [4]: 90%; CLint scaled at 1 µM [5]: 135 mL/min/kg; inhibition at 10 µM (CYP3A4): 47%; inhibition [6]: Active; remaining at 4 h, 200 µM [7]: 81%; half-life at 1 µM [8]: 13 min; remaining at 8 h, 1 µM [9]: 84%; inhibition at 10 µM (CYP2D6): 19%; half-life at 1 µM [10]: 4.3 min; remaining at 8 h, 200 µM [11]: 67%; remaining at 0 h, 200 µM [12]: 96%; CLint scaled at 1 µM [13]: 1430 mL/min/kg

With `O=C(COc1ccc2[nH]ncc2c1)Nc1ccc(-c2cnccn2)cn1` as the molecule, how does the IC50 [1] read?
Its IC50 is over 1000 nM.

Which IC50 [1] does the source give for `Cc1cc(-c2ccc(SCC(=O)Nc3ccc(-c4cnccn4)cn3)cc2)ccn1` here?
Its IC50 is 0.53 nM.

What about the remaining at 0.5 h, 1 µM [2] of the same molecule?
The remaining at 0.5 h, 1 µM was 93%.

What about the remaining at 1 h, 1 µM [4] of the same molecule?
The remaining at 1 h, 1 µM was 91%.

And the CLint scaled at 1 µM [5]?
The CLint scaled at 1 µM was 263 mL/min/kg.

What about the inhibition at 10 µM (CYP3A4) of the same molecule?
Its inhibition at 10 µM is 60%.

And the remaining at 4 h, 200 µM [7]?
Its remaining at 4 h, 200 µM is 89%.

What about the half-life at 1 µM [8] of the same molecule?
The half-life at 1 µM was 6.8 min.

What about the remaining at 8 h, 1 µM [9] of the same molecule?
Its remaining at 8 h, 1 µM is 83%.

And the inhibition at 10 µM (CYP2D6)?
The inhibition at 10 µM was 45%.

What about the half-life at 1 µM [10] of the same molecule?
The half-life at 1 µM was 3.4 min.

What about the remaining at 8 h, 200 µM [11] of the same molecule?
The remaining at 8 h, 200 µM was 83%.

And the remaining at 0 h, 200 µM [12]?
Its remaining at 0 h, 200 µM is 98%.

What about the CLint scaled at 1 µM [13] of the same molecule?
The CLint scaled at 1 µM was 1790 mL/min/kg.

For `Cc1cc(-c2ccc(NCC(=O)Nc3ccc(-c4cnccn4)cn3)cc2)ccn1`, which IC50 [1] is on record?
Its IC50 is 0.96 nM.

And the remaining at 0.5 h, 1 µM [2]?
Its remaining at 0.5 h, 1 µM is 100%.

What about the Activity [3] of the same molecule?
The Activity was “Non-toxic”.

And the remaining at 1 h, 1 µM [4]?
Its remaining at 1 h, 1 µM is 100%.

And the CLint scaled at 1 µM [5]?
Its CLint scaled at 1 µM is 45 mL/min/kg.

What about the inhibition at 10 µM (CYP3A4) of the same molecule?
Its inhibition at 10 µM is 50%.

What about the inhibition [6] of the same molecule?
The inhibition was “Active”.

And the remaining at 4 h, 200 µM [7]?
The remaining at 4 h, 200 µM was 88%.

And the half-life at 1 µM [8]?
Its half-life at 1 µM is 39 min.

What about the remaining at 8 h, 1 µM [9] of the same molecule?
The remaining at 8 h, 1 µM was 98%.

What about the inhibition at 10 µM (CYP2D6) of the same molecule?
Its inhibition at 10 µM is 53%.

And the half-life at 1 µM [10]?
Its half-life at 1 µM is 14 min.

And the remaining at 8 h, 200 µM [11]?
The remaining at 8 h, 200 µM was 85%.

And the remaining at 0 h, 200 µM [12]?
Its remaining at 0 h, 200 µM is 95%.

What about the CLint scaled at 1 µM [13] of the same molecule?
Its CLint scaled at 1 µM is 440 mL/min/kg.

For `COc1ccc2cc(OCC(=O)Nc3ccc(-c4cnccn4)cn3)ccc2c1`, which IC50 [1] is on record?
The IC50 was over 1000 nM.

With `CC(=O)N1CCc2ccc(OCC(=O)Nc3ccc(-c4cnccn4)cn3)cc2C1` as the molecule, how does the IC50 [1] read?
Its IC50 is 24 nM.

For `Cn1ncc2cc(NCC(=O)Nc3ccc(-c4cnccn4)cn3)ccc21`, which IC50 [1] is on record?
Its IC50 is over 1000 nM.

With `O=C(CNc1ccc2[nH]ncc2c1)Nc1ccc(-c2cnccn2)cn1` as the molecule, how does the IC50 [1] read?
The IC50 was over 1000 nM.

Which IC50 [1] does the source give for `Cc1cc(-c2ccc(OC(=O)Nc3ccc(-c4cccnc4)cc3)cc2)ccn1` here?
Its IC50 is 2.2 nM.

Which IC50 [1] does the source give for `Nc1noc2ccc(OCC(=O)Nc3ccc(-c4cnccn4)cn3)cc12` here?
Its IC50 is over 1000 nM.

For `Cc1cc(-c2ccc(CCC(=O)Nc3ccc(-c4cnccn4)cn3)cc2)ccn1`, which IC50 [1] is on record?
The IC50 was 0.19 nM.

And the remaining at 0.5 h, 1 µM [2]?
Its remaining at 0.5 h, 1 µM is 98%.

What about the remaining at 1 h, 1 µM [4] of the same molecule?
Its remaining at 1 h, 1 µM is 94%.

What about the CLint scaled at 1 µM [5] of the same molecule?
The CLint scaled at 1 µM was 84 mL/min/kg.

And the inhibition at 10 µM (CYP3A4)?
The inhibition at 10 µM was 45%.

And the remaining at 4 h, 200 µM [7]?
The remaining at 4 h, 200 µM was 97%.

And the half-life at 1 µM [8]?
The half-life at 1 µM was 21 min.

And the remaining at 8 h, 1 µM [9]?
Its remaining at 8 h, 1 µM is 90%.

What about the inhibition at 10 µM (CYP2D6) of the same molecule?
Its inhibition at 10 µM is 47%.

What about the half-life at 1 µM [10] of the same molecule?
Its half-life at 1 µM is 4.8 min.

And the remaining at 8 h, 200 µM [11]?
The remaining at 8 h, 200 µM was 93%.

What about the remaining at 0 h, 200 µM [12] of the same molecule?
The remaining at 0 h, 200 µM was 100%.

And the CLint scaled at 1 µM [13]?
The CLint scaled at 1 µM was 1260 mL/min/kg.

For `O=C(COc1ccc2ccncc2c1)Nc1ccc(-c2cnccn2)cn1`, which IC50 [1] is on record?
Its IC50 is 30 nM.

Which IC50 [1] does the source give for `Cc1cc(-c2ccc(OC(C)C(=O)Nc3ccc(-c4cnccn4)cn3)cc2)ccn1` (stereo not given) here?
The IC50 was 0.11 nM.

And the remaining at 0.5 h, 1 µM [2]?
Its remaining at 0.5 h, 1 µM is 100%.

And the Ratio IC50 [14]?
The Ratio IC50 was 5.

And the Activity [3]?
Its Activity is “Non-toxic”.

And the remaining at 1 h, 1 µM [4]?
Its remaining at 1 h, 1 µM is 100%.

And the CLint scaled at 1 µM [5]?
Its CLint scaled at 1 µM is 43 mL/min/kg.

What about the inhibition at 10 µM (CYP3A4) of the same molecule?
The inhibition at 10 µM was 67%.

And the inhibition [6]?
The inhibition was “Active”.

And the remaining at 4 h, 200 µM [7]?
Its remaining at 4 h, 200 µM is 85%.

And the half-life at 1 µM [8]?
The half-life at 1 µM was 41 min.

And the remaining at 8 h, 1 µM [9]?
Its remaining at 8 h, 1 µM is 100%.

And the inhibition at 10 µM (CYP2D6)?
The inhibition at 10 µM was 53%.

And the half-life at 1 µM [10]?
Its half-life at 1 µM is 19 min.

What about the remaining at 8 h, 200 µM [11] of the same molecule?
Its remaining at 8 h, 200 µM is 71%.

And the remaining at 0 h, 200 µM [12]?
Its remaining at 0 h, 200 µM is 97%.

What about the CLint scaled at 1 µM [13] of the same molecule?
The CLint scaled at 1 µM was 321 mL/min/kg.

For `N#Cc1ccc2cc(OCC(=O)Nc3ccc(-c4cnccn4)cn3)ccc2c1`, which IC50 [1] is on record?
The IC50 was 2.7 nM.

With `CC(=O)N1CCN(c2ccc(OCC(=O)Nc3ccc(-c4cnccn4)cn3)cc2)CC1` as the molecule, how does the IC50 [1] read?
The IC50 was 483 nM.

For `Cc1cc(-c2cccc(OCC(=O)Nc3ccc(-c4cnccn4)cn3)c2)ccn1`, which IC50 [1] is on record?
Its IC50 is 188 nM.

With `Cc1cc(-c2ccc(OC(=O)Nc3ccc(-c4ccccc4)cc3)cc2)ccn1` as the molecule, how does the IC50 [1] read?
The IC50 was 5 nM.

Which IC50 [1] does the source give for `O=C(COc1ccc2ccccc2c1)Nc1ccc(-c2cnccn2)cn1` here?
Its IC50 is over 1000 nM.

With `Cn1ncc2cc(OCC(=O)Nc3ccc(-c4cnccn4)cn3)ccc21` as the molecule, how does the IC50 [1] read?
The IC50 was over 1000 nM.

Which IC50 [1] does the source give for `N#Cc1ccc(OCC(=O)Nc2ccc(-c3cnccn3)cn2)cc1` here?
Its IC50 is 485 nM.

Which IC50 [1] does the source give for `Cc1cc(-c2cccc(NCC(=O)Nc3ccc(-c4cnccn4)cn3)c2)ccn1` here?
The IC50 was 164 nM.

With `Cc1cc(-c2cccc(SCC(=O)Nc3ccc(-c4cnccn4)cn3)c2)ccn1` as the molecule, how does the IC50 [1] read?
The IC50 was 40 nM.
